The values below come from patent US20220144839A1, “INDOLE AHR INHIBITORS AND USES THEREOF” (Ikena Oncology, Inc., priority 2018, published 2022).

What is called pIC50 is −log10 of the IC50, conventionally taken in molar units.

SMILES strings stand for the structures. pIC50: −log10 of the molar value.

In this experiment the target is T1, AHR (UniProt P35869).
T1 sequence (P35869 1-848): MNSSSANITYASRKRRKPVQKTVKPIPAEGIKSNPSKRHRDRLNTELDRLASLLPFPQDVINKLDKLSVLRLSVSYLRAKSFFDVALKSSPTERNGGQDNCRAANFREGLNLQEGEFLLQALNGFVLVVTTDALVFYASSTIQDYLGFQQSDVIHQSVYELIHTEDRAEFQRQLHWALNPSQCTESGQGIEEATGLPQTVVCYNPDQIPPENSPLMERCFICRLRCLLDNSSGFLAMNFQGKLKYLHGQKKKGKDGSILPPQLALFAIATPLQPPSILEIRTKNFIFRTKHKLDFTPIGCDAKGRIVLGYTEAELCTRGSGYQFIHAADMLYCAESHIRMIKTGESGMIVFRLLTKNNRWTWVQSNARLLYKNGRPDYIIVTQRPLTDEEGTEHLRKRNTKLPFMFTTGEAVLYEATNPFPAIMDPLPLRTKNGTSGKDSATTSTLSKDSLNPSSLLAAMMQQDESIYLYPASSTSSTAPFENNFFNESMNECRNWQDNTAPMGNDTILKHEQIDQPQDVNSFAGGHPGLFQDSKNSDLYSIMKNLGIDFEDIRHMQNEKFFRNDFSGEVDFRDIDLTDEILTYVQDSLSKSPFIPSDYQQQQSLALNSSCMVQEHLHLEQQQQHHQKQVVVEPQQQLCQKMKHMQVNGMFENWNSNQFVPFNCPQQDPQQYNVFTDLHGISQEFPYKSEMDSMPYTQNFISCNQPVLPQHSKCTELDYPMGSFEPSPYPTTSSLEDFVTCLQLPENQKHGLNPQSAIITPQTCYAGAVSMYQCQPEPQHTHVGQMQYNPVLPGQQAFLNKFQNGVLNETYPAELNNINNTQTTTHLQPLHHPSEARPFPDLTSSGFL
Put plainly: DRE-Luciferase Reporter Assay (Alternate Method), Example 1B. It is filed as cell-based. The settings on record: concentration which inhibits half of the luciferase activity induced by AHR activating ligand; DRE-luciferase reporter cell line. The method, then:
AHR binds to Dioxin Responsive Elements (DRE) upstream of genes that it activates. One measure of AHR activity is activation of a reporter gene, such as luciferase, downstream of one or multiple DRE elements. Luciferase activity will reflect activation and inhibition of AHR in the cells expressing his reporter.
Murine Hepa1-6 or Hepa-1c1c7 or other murine cell line with a DRE-luciferase reporter either stably or transiently transfected were plated in media in plates (96-well, 384-well or other plates) and incubated overnight at 37° C. in a C02 incubator or compound and agonist were added at the time of plating. Likewise, human HepG2 or other human cell line with a DRE-luciferase reporter either stably or transiently transfected were plated in media in plates (96-well, 384-well or other plates) and incubated overnight at 37° C. in a C02 incubator or compound and agonist were added at the time of plating.
At the time that cells are plated or following incubation overnight, an AHR activating ligand, such as TCDD, kynurenine, ITE (2-(1H-indole-3-ylcarbonyl)-4-thiazolecarboxylic methyl ester), VAF347, BNF (beta-naphthoflavone), FICZ (6-formylindolo(3,2-b) carbazole or other AHR ligands, was added with or without AHR antagonist.
Cells were incubated for 4, 15 or 24 hours or another time point and then lysed for determination of luciferase activity as a read-out of the AHR activation or inhibition. Luciferase was measured with a commercial kit such as the Promega Luciferase kit or any kit or reagents that provide the luciferin substrate for measuring luciferase activity. The level of luciferase with only activating ligand added was the maximum signal while the luciferase with no ligand was the minimum signal. IC50 values were determined as the concentration which inhibits half of the luciferase activity.
(Reporter assays use an easily measured gene product as a stand-in for the process of interest.)
`CC(C)c1cnn2c(N[C@@H]3CCc4[nH]c5ccccc5c4C3)nc(C3CCOC3)nc12` (stereo partly drawn) [Compound I-17, (3R)—N-(8-isopropyl-2-tetrahydrofuran-3-yl-pyrazolo[1,5-a][1,3,5]triazin-4-yl)-2,3,4,9-tetrahydro-1H-carbazol-3-amine] showed a pIC50 of 6.00 to 6.30.

Compound `Cc1ccnc2c(N[C@@H]3CCc4[nH]c5ccccc5c4C3)nc(-c3cncc(F)c3)nc12` [Compound I-22, (3R)—N-[2-(5-fluoro-3-pyridyl)-8-methyl-pyrido[3,2-d]pyrimidin-4-yl]-2,3,4,9-tetrahydro-1H-carbazol-3-amine] gave a negative-log IC50 (pIC50) greater than 6.30.

In the case of `CNc1cnn2c(N[C@@H]3CCc4[nH]c5ccccc5c4C3)nc(-c3cncc(F)c3)nc12` [Compound I-51, 2-(5-Fluoro-3-pyridyl)-N8-methyl-N4-[(3R)-2,3,4,9-tetrahydro-1H-carbazol-3-yl]pyrazolo[1,5-a][1,3,5]triazine-4,8-diamine], the negative logarithm of the IC50 (pIC50) was greater than 6.30.

In turn, `CC(C)c1cnn2c(N[C@@H]3CCc4[nH]c5ccccc5c4C3)nc(-n3cncn3)nc12` [Compound I-16, (3R)—N-[8-Isopropyl-2-(1,2,4-triazol-1-yl)pyrazolo[1,5-a][1,3,5]triazin-4-yl]-2,3,4,9-tetrahydro-1H-carbazol-3-amine] had a pIC50 of less than 5.82.

Take `CC(C)c1cnn2c(N[C@@H]3CCc4c(ccnc4N)C3)nc(-c3cncc(F)c3)nc12` [Compound I-63a, (6R)—N6-[2-(5-Fluoro-3-pyridyl)-8-isopropyl-pyrazolo[1,5-a][1,3,5]triazin-4-yl]-5,6,7,8-tetrahydroisoquinoline-1,6-diamine]: the pIC50 is less than 5.82.

In turn, `CC(C)c1cnn2c(N[C@H]3CCc4[nH]c5cnccc5c4C3)nc(-c3cncc(F)c3)nc12` [Compound I-13b, (6S)—N-[2-(5-fluoro-3-pyridyl)-8-isopropyl-pyrazolo[1,5-a][1,3,5]triazin-4-yl]-6,7,8,9-tetrahydro-5H-pyrido[3,4-b]indol-6-amine] showed a negative-log IC50 (pIC50) of less than 5.82.

The compound `CC(C)c1cnn2c(N[C@H]3Cc4cncnc4NC3=O)nc(-c3cncc(F)c3)nc12` [Compound I-55a] showed a negative-log IC50 (pIC50) of less than 5.82.

`C[C@H](NC(=O)N1CCN(C)CC1)c1cnn2c(N[C@@H]3CCc4[nH]c5ccccc5c4C3)nc(-c3cncc(F)c3)nc12` [Compound I-61a, N-[(1S)-1-[2-(5-Fluoro-3-pyridyl)-4-[[(3R)-2,3,4,9-tetrahydro-1H-carbazol-3-yl]amino]pyrazolo[1,5-a][1,3,5]triazin-8-yl]ethyl]-4-methyl-piperazine-1-carboxamide] showed a negative logarithm of the IC50 (pIC50) greater than 6.30.

As to `CC(C)c1cnn2c(N[C@@H]3Cc4cncnc4NC3=O)nc(-c3cncc(F)c3)nc12` [Compound I-55b, (6R)-6-[[2-(5-fluoro-3-pyridyl)-8-isopropyl-pyrazolo[1,5-a][1,3,5]triazin-4-yl]amino]-6,8-dihydro-5H-pyrido[2,3-d]pyrimidin-7-one], the negative-log IC50 (pIC50) was less than 5.82.

`C[C@H](O)c1cnc2c(N[C@@H]3CCc4[nH]c5ccccc5c4C3)nc(-c3cncc(F)c3)nn12` [Compound I-42a, (1S)-1-[2-(5-Fluoro-3-pyridyl)-4-[[(3R)-2,3,4,9-tetrahydro-1H-carbazol-3-yl]amino]imidazo[2,1-f][1,2,4]triazin-7-yl]ethanol]: the pIC50 was greater than 6.30.

In turn, `O[C@H](c1cnn2c(N[C@@H]3CCc4[nH]c5ccccc5c4C3)nc(-c3cncc(F)c3)nc12)C(F)(F)F` [Compound I-41a, (1R)-2,2,2-Trifluoro-1-[2-(5-fluoro-3-pyridyl)-4-[[(3R)-2,3,4,9-tetrahydro-1H-carbazol-3-yl]amino]pyrazolo[1,5-a][1,3,5]triazin-8-yl]ethanol] showed a pIC50 greater than 6.30.

Compound `CC(C)c1cnn2c(N[C@H]3CC[C@H](O)CC3)nc(-c3cncc(F)c3)nc12` [Compound I-44a, 4-[[2-(5-Fluoro-3-pyridyl)-8-isopropyl-pyrazolo[1,5-a][1,3,5]triazin-4-yl]amino]cyclohexanol] had a negative logarithm of the IC50 (pIC50) of less than 5.82.

`CC(CO)CNc1nc(-c2cncc(F)c2)nc2c(C(C)C)cnn12` (centres unmarked) [Compound I-49, 3-[[2-(5-Fluoro-3-pyridyl)-8-isopropyl-pyrazolo[1,5-a][1,3,5]triazin-4-yl]amino]-2-methyl-propan-1-ol] had a negative logarithm of the IC50 (pIC50) of less than 5.82.

As for `CC(C)c1cnn2c(N[C@H]3CCc4[nH]c5cccnc5c4C3)nc(-c3cncc(F)c3)nc12` [Compound I-8a, (8S)—N-[2-(5-Fluoro-3-pyridyl)-8-isopropyl-pyrazolo[1,5-a][1,3,5]triazin-4-yl]-6,7,8,9-tetrahydro-5H-pyrido[3,2-b]indol-8-amine], the pIC50 is 5.82 to 6.00.

In the case of `CC(C)c1cnn2c(N[C@H]3CCc4[nH]c5ccc(O)cc5c4C3)nc(-c3cncc(F)c3)nc12` [Compound I-34a, (6S)-6-[[2-(5-Fluoro-3-pyridyl)-8-isopropyl-pyrazolo[1,5-a][1,3,5]triazin-4-yl]amino]-6,7,8,9-tetrahydro-5H-carbazol-3-ol], the negative logarithm of the IC50 (pIC50) was less than 5.82.

The compound `COCC[C@@H](C)c1cnn2c(N[C@@H]3CCc4[nH]c5ccccc5c4C3)nc(-c3cncc(F)c3)nc12` [Compound I-65b, (3R)—N-[2-(5-fluoro-3-pyridyl)-8-[(1R)-3-methoxy-1-methyl-propyl]pyrazolo[1,5-a][1,3,5]triazin-4-yl]-2,3,4,9-tetrahydro-1H-carbazol-3-amine] gave a pIC50 greater than 6.30.

In turn, `CC(C)c1cnn2c(N[C@H]3CC[C@@H](O)CC3)nc(-c3cncc(F)c3)nc12` [Compound I-44b, 4-[[2-(5-Fluoro-3-pyridyl)-8-isopropyl-pyrazolo[1,5-a][1,3,5]triazin-4-yl]amino]cyclohexanol] gave a negative logarithm of the IC50 (pIC50) of less than 5.82.

`CC(C)c1cnn2c(NCCc3cccnc3N)nc(-c3cncc(F)c3)nc12` [Compound I-58, N-[2-(2-Amino-3-pyridyl)ethyl]-2-(5-fluoro-3-pyridyl)-8-isopropyl-pyrazolo[1,5-a][1,3,5]triazin-4-amine] showed a negative-log IC50 (pIC50) greater than 6.30.

Take `Fc1cncc(-c2nc(N[C@@H]3CCc4[nH]c5ccccc5c4C3)n3ncc(-c4cnn[nH]4)c3n2)c1` [Compound I-10, (3R)—N-[2-(5-Fluoro-3-pyridyl)-8-(1H-triazol-5-yl)pyrazolo[1,5-a][1,3,5]triazin-4-yl]-2,3,4,9-tetrahydro-1H-carbazol-3-amine]: the pIC50 was greater than 6.30.

Consider `CC(C)c1cnn2c(N[C@@H]3CCc4[nH]c5ccc(O)cc5c4C3)nc(-c3cncc(F)c3)nc12` [Compound I-34b, (6R)-6-[[2-(5-Fluoro-3-pyridyl)-8-isopropyl-pyrazolo[1,5-a][1,3,5]triazin-4-yl]amino]-6,7,8,9-tetrahydro-5H-carbazol-3-ol], for which the pIC50 is less than 5.82.

As to `CC(C)c1cnn2c(N[C@@H]3CCc4[nH]c5ccccc5c4C3)nc([C@H]3CCCOC3)nc12` [Compound I-15b, (3R)—N-[8-isopropyl-2-[(3R)-tetrahydropyran-3-yl]pyrazolo[1,5-a][1,3,5]triazin-4-yl]-2,3,4,9-tetrahydro-1H-carbazol-3-amine], the pIC50 is less than 5.82.

Take `CC(C)c1cnn2c(N[C@@H]3CCc4[nH]c5ccccc5c4C3)nc([C@@H]3CCCOC3)nc12` [Compound I-15a, (3R)—N-(8-isopropyl-2-tetrahydropyran-3-yl-pyrazolo[1,5-a][1,3,5]triazin-4-yl)-2,3,4,9-tetrahydro-1H-carbazol-3-amine]: the pIC50 is less than 5.82.

Regarding `CC(C)c1cnn2c(N[C@H]3CCc4[nH]c5ccccc5c4C3)nc(-c3cncc(F)c3)nc12` [Compound I-47, (3S)—N-[2-(5-Fluoro-3-pyridyl)-8-isopropyl-pyrazolo[1,5-a][1,3,5]triazin-4-yl]-2,3,4,9-tetrahydro-1H-carbazol-3-amine], the pIC50 is greater than 6.30.
